{"source": "a melting point compilation (Tetko et al.; mined from patent text by program, amines drawn as free bases though some values may be those of a salt)"}
{"units": {"melting point": "°C"}}
{"compound": "Cc1cc(NC(=O)C(C)(C)Sc2ccc(Cl)cc2)c(C)c(C)c1O", "melting point": 134}
{"compound": "CCCc1c(C)c2ccc(O)cc2oc1=O", "melting point": "160 to 173"}
{"compound": "CSc1ccc(CCCOCCCCCCNCC(O)c2ccc(O)c(F)c2)cc1", "note": "(stereo not drawn)", "melting point": "66 to 67"}
{"compound": "COc1cc(Nc2nccc(-c3ccc(N4CCN(CCN)CC4)nc3)n2)cc(OC)c1OC", "melting point": "88 to 89"}
{"compound": "CC1CN(c2ccc(N)cc2Cl)C(=O)O1", "note": "(stereo not drawn)", "melting point": "140 to 141"}
{"compound": "Cn1c(=O)c2cn(S(=O)(=O)CCCCl)nc2n(C)c1=O", "melting point": "160 to 162"}
{"compound": "CS(=O)(=O)c1ccc(-c2cnn(CC(O)c3ccccc3)c(=O)c2-c2ccc(F)cc2)cc1", "note": "(stereo not drawn)", "melting point": "205 to 207"}
{"compound": "CC1COc2c(N3CCSCC3)c(F)cc3c(=O)c(C(=O)O)cn1c23", "note": "(stereo not drawn)", "melting point": "> 300"}
{"compound": "CC(=O)OCC(=O)Nc1cccc([N+](=O)[O-])c1C#N", "melting point": "157 to 158"}
{"compound": "CCCc1c(OCCCOc2ccc(C(=O)OCC)cc2F)ccc(C(C)=O)c1O", "melting point": "87 to 88"}
{"compound": "CC/C=C/CNC(=O)[C@H]1N(C(=O)[C@@H](O)[C@H](Cc2ccccc2)NC(=O)c2cccc(O)c2C)CSC1(C)C", "melting point": "113 to 115"}
{"compound": "FC(F)c1cc(-c2ccc(C(F)(F)F)cc2)nc2c(I)ncn12", "melting point": 159}
{"compound": "COCOCC1(C)Cc2c(C)c(N3CCN(c4ccc(OC)cc4)CC3)c(C)c(C)c2O1", "note": "(stereo not drawn)", "melting point": "111 to 114"}
{"compound": "COC(=O)c1cc(C[C@@H]2COc3ccc(OCc4nc5cc(F)ccc5s4)cc3[C@@H]2O)ccc1OC", "note": "(relative stereo)", "melting point": "160 to 162"}
{"compound": "Cc1ccc(-c2ccc(CCCCC(=O)O)s2)cc1", "melting point": "124 to 127"}
{"compound": "COc1cncnc1N1CCN(CCCc2c[nH]c3ccc(N(C)S(=O)(=O)C(F)(F)F)cc23)CC1", "melting point": "> 230"}
{"compound": "CSc1ncc(CNc2ccccc2Cl)c(Nc2ccccc2)n1", "melting point": "131 to 132"}
{"compound": "CNC(=O)CC(S)C(CC(C)C)C(=O)NC(Cc1ccc(OC)cc1)C(=O)NC", "note": "(stereo not drawn)", "melting point": "175 to 190"}
{"compound": "COc1ccc(-n2nc(CC(C)(C)C(=O)O)cc2-c2ccc(Cl)cc2)cc1", "melting point": "172 to 174"}
{"compound": "Cn1ncnc1COc1nn2c(-c3cc(F)ccc3F)nncc2c1-c1ccccc1", "melting point": 199}
{"compound": "CCCC[C@H](NC(=O)[C@H](CCC)NC(=O)OCc1ccccc1)C(=O)CSCc1ccco1", "melting point": "95 to 96"}
{"compound": "C#CCCn1nnc2cc3c(=O)n(C(C)Cn4cnnn4)nnc3cc2c1=O", "note": "(stereo not drawn)", "melting point": "201 to 204"}
{"compound": "CC(C)[C@H]1C(=O)OCN1C(=O)OC(C)(C)C", "melting point": "43 to 45"}
{"compound": "CN1C(=O)Cc2ccsc2S1(=O)=O", "melting point": "136 to 137"}
{"compound": "Nc1nn(-c2c(Cl)cc(C(F)(F)F)cc2Cl)cc1C1CC1(Br)Br", "note": "(stereo not drawn)", "melting point": "125 to 126"}
{"compound": "COC(=O)c1ccc2c(c1)CN(c1cc3c(cc1F)c(=O)c(C(=O)O)cn3C1CC1)C2", "melting point": "279 to 285"}
{"compound": "CCOC(=O)CCc1c(C)c2c(O)cc(C(C)CCCc3ccccc3)cc2oc1=O", "note": "(stereo not drawn)", "melting point": "58 to 70"}
{"compound": "O=C(Nc1ccc(Br)cc1)N1COC2(c3ccc(F)cc3)Cc3cc(F)ccc3C2=N1", "note": "(stereo not drawn)", "melting point": "208 to 209"}
{"compound": "CC(=O)NCc1cccc(Nc2nccc(-c3sc(-c4cccs4)nc3C)n2)c1", "melting point": "223 to 225"}
{"compound": "O=C(Oc1ccc(Cl)c(Cl)c1)c1cc2c(cn1)[nH]c1ccccc12", "melting point": "260 to 261"}
{"compound": "CS(=O)(=O)Nc1cc([C@@H](O)CNC2CCN(c3ccc(CCC(=O)O)cc3)CC2)ccc1O", "melting point": "130 to 133"}
{"compound": "CNC(=N[N+](=O)[O-])N(Cc1cnc(Cl)s1)C(C)=O", "melting point": "105 to 106"}
{"compound": "CCOC(=O)c1c(C(F)(F)F)nc2cc(C(F)(F)F)ccc2c1O", "melting point": 156}
{"compound": "CCS(=O)(=O)c1ccc2cc(C(C)=O)ccc2c1", "melting point": 133}
{"compound": "COC(=O)c1cc(C=O)ccc1OCc1nc(-c2ccco2)oc1C", "melting point": "121 to 122"}
{"compound": "CC(CN1C(=O)C2(COc3cc4c(cc32)CCO4)c2ccccc21)OCc1ccc(F)cc1", "note": "(stereo not drawn)", "melting point": "55 to 60"}
{"compound": "O=C1Nc2cc(Cl)ccc2C(=O)C1c1cc2ccccc2o1", "note": "(stereo not drawn)", "melting point": 342}
{"compound": "O=C(Cc1ccccc1)c1ccncc1", "melting point": "94 to 96"}
